The results in this text go back to US20120214862A1, “MODULATION OF FACTOR 7 EXPRESSION” (ISIS Pharmaceuticals, Inc., priority 2009, published 2012).

In the oligonucleotide strings, read from the 5' end, every base follows the letter of its sugar. An asterisk marks phosphorothioate; unmarked linkages are phosphodiester. Other units and linkages are bracketed, terminal groups are in braces. A string of capitals states the bases alone. e = 2'-O-(2-methoxyethyl) (MOE); [5mC] = 5-methylcytosine; d = 2'-deoxy (DNA)

The subject of one data set is human Factor 7 mRNA. Briefly: Antisense inhibition of human Factor 7 mRNA in HepB3 cells, lipofectin, 50 nM, real-time RT-PCR. Particulars: Example 1; HepB3 cells, lipofectin, 50 nM, ~24 h, relative to untreated control cells. The format is cell-based. The essentials:
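Percent inhibition of Factor 7 mRNA, relative to untreated control, comes from real-time RT-PCR with RIBOGREEN normalization, using primer probe set RTS 2927 in some runs. RNA was taken roughly 24 h after lipofectin delivery of 50 nM oligonucleotide into HepB3 cells.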
Consider “407892 (antisense e[5mC]*e[5mC]*e[5mC]*e[5mC]*eA*dT*dT*d[5mC]*dT*dG*dG*d[5mC]*dA*dT*dG*eG*eA*e[5mC]*eT*eT) [compound 407892]”, for which the “% Inhibition (human Factor 7 mRNA)” value amounted to 68%. Same read-out and setting: the value for “407658 (antisense eG*e[5mC]*eT*eT*eG*d[5mC]*d[5mC]*dG*dG*dA*dG*dT*d[5mC]*dT*dG*eA*eG*eT*eG*eG) [compound 407658]” was 16%; that for “407957 (antisense eG*eG*e[5mC]*e[5mC]*eT*dG*dG*dG*dA*dA*d[5mC]*dT*dT*dG*d[5mC]*eA*eT*eT*eT*eA) [compound 407957]” was 52%. Still for that read-out and setting: the same measure for “407663 (antisense eT*eT*eG*e[5mC]*eA*dG*dG*d[5mC]*dA*dG*dG*dA*d[5mC]*dT*dG*eG*eT*eG*eG*eT) [compound 407663]”: 44%; for “407916 (antisense eG*eT*eG*eG*e[5mC]*d[5mC]*d[5mC]*dA*d[5mC]*dG*dG*dT*dT*dG*d[5mC]*eG*e[5mC]*eA*eG*e[5mC]) [compound 407916]”: 53%. Same read-out and setting: the same measure for “407599 (antisense e[5mC]*e[5mC]*eT*eG*eG*dG*dA*dG*dA*d[5mC]*d[5mC]*dA*dT*dG*dA*eT*eG*eA*eA*eA) [compound 407599]”: 73%.

In the case of “407950 (antisense eA*eG*e[5mC]*eT*eT*d[5mC]*d[5mC]*dA*dT*dG*dT*dG*dA*dG*dG*eG*eT*eT*e[5mC]*eA) [compound 407950]”, the “% Inhibition (human Factor 7 mRNA)” value is reported as 58%.

As for “407895 (antisense e[5mC]*eA*e[5mC]*eA*e[5mC]*dA*dG*dA*dT*d[5mC]*dA*dG*d[5mC]*dT*dG*eG*eT*e[5mC]*eA*eT) [compound 407895]”, the “% Inhibition (human Factor 7 mRNA)” value came to 72%.

Turning to “407919 (antisense eT*e[5mC]*eG*eA*eT*dG*dT*dA*d[5mC]*dT*dG*dG*dG*dA*dG*eA*e[5mC]*e[5mC]*e[5mC]*eT) [compound 407919]”, the “% Inhibition (human Factor 7 mRNA)” value is recorded as 84%. Regarding “407920 (antisense eT*eG*eA*eG*e[5mC]*dG*d[5mC]*dA*dT*dG*dA*dG*d[5mC]*dT*dT*eT*eT*eG*e[5mC]*eA) [compound 407920]”, the “% Inhibition (human Factor 7 mRNA)” value was determined as 65%.

“407901 (antisense eT*eG*eG*eT*eG*dT*dT*dG*dA*dT*d[5mC]*dA*dG*dG*dG*eT*e[5mC]*e[5mC]*e[5mC]*e[5mC]) [compound 407901]”: the “% Inhibition (human Factor 7 mRNA)” value is on record as 89%. As for “407624 (antisense eG*eA*eG*eA*e[5mC]*d[5mC]*dA*d[5mC]*d[5mC]*d[5mC]*dA*dG*dA*dT*dG*eG*eT*eG*eT*eT) [compound 407624]”, the “% Inhibition (human Factor 7 mRNA)” value came to 73%.

For “407962 (antisense eT*eT*eG*eG*eA*dA*dG*d[5mC]*dA*dG*d[5mC]*d[5mC]*d[5mC]*dA*d[5mC]*eG*eG*e[5mC]*eT*eG) [compound 407962]”, the “% Inhibition (human Factor 7 mRNA)” value came out at 41%. On the same count and under the same terms, the same measure for “407918 (antisense e[5mC]*e[5mC]*eT*eG*eG*dT*dG*dT*dA*d[5mC]*dA*d[5mC]*d[5mC]*d[5mC]*d[5mC]*eA*eA*eA*eG*eT) [compound 407918]”: 72%.

Staying with this data set, now noted: Example 4; HepB3 cells, lipofectin, 50 nM, ~24 h, relative to untreated control.
As for “422271 (antisense e[5mC]*eT*dG*dA*dG*d[5mC]*dG*d[5mC]*dG*dG*dA*dA*dG*dA*dA*eG*eG*eG*eA*e[5mC]) [compound 422271]”, the “% Inhibition (human Factor 7 mRNA)” value turned out to be 32%.

Take “422192 (antisense eG*eA*eG*d[5mC]*dG*d[5mC]*dG*dG*dA*dA*dG*dA*dA*dG*dG*dG*dA*e[5mC]*eG*eG) [compound 422192]”: the “% Inhibition (human Factor 7 mRNA)” value was 27%. Turning to “422118 (antisense e[5mC]*eG*eG*eA*eA*dG*dA*dA*dG*dG*dG*dA*d[5mC]*dG*dG*eA*eA*eG*eG*eT) [compound 422118]”, the “% Inhibition (human Factor 7 mRNA)” value came out at 15%. Turning to “422198 (antisense eG*eT*eT*dA*d[5mC]*dT*dG*dA*dG*d[5mC]*dG*d[5mC]*dG*dG*dA*dA*dG*eA*eA*eG) [compound 422198]”, the “% Inhibition (human Factor 7 mRNA)” value was 50%. Still for that read-out and setting: the value for “422129 (antisense eG*eT*eT*eA*e[5mC]*dT*dG*dA*dG*d[5mC]*dG*d[5mC]*dG*dG*dA*eA*eG*eA*eA*eG) [compound 422129]” was 45%.

The data set is the same for the next values; noted with them: HepB3 cells, lipofectin, 50 nM antisense oligonucleotide, approximately 24 hours, primer probe set RTS 2927, relative to untreated control.
Take “416485 (antisense eG*eA*eG*e[5mC]*eT*dA*d[5mC]*dA*dG*d[5mC]*d[5mC]*dT*d[5mC]*dA*dA*eA*e[5mC]*eA*eT*e[5mC]) [compound 416485]”: the “% Inhibition of human Factor 7 mRNA levels” value is listed as 7%. With “416433 (antisense eA*eG*eA*eA*eA*dT*d[5mC]*d[5mC]*dA*dG*dA*dA*d[5mC]*dA*dG*e[5mC]*eT*eT*e[5mC]*eG) [compound 416433]”, the “% Inhibition of human Factor 7 mRNA levels” value is reported as 0%.

In the case of “416531 (antisense eA*eG*eA*eT*eG*dA*d[5mC]*d[5mC]*dA*dG*d[5mC]*dA*dG*dG*dA*eA*eG*e[5mC]*e[5mC]*eT) [compound 416531]”, the “% Inhibition of human Factor 7 mRNA levels” value was determined as 19%.

“416464 (antisense eA*eA*e[5mC]*eA*eT*dG*dT*dA*d[5mC]*dT*d[5mC]*d[5mC]*dG*dT*dG*eA*eT*eA*eT*eT) [compound 416464]”: the “% Inhibition of human Factor 7 mRNA levels” value came out at 53%.

In the case of “416450 (antisense eG*eG*eT*eT*eT*dG*d[5mC]*dT*dG*dG*d[5mC]*dA*dT*dT*dT*e[5mC]*eT*eT*eT*eT) [compound 416450]”, the “% Inhibition of human Factor 7 mRNA levels” value was 49%. Take “416423 (antisense eG*eT*eG*eT*eT*dT*d[5mC]*dT*d[5mC]*d[5mC]*dT*d[5mC]*d[5mC]*dT*dG*eA*eG*eG*e[5mC]*e[5mC]) [compound 416423]”: the “% Inhibition of human Factor 7 mRNA levels” value was determined as 51%. Consider “416541 (antisense e[5mC]*e[5mC]*eA*e[5mC]*e[5mC]*d[5mC]*dT*dT*dG*dG*dT*dG*d[5mC]*d[5mC]*d[5mC]*eA*eG*eA*eT*e[5mC]) [compound 416541]”, for which the “% Inhibition of human Factor 7 mRNA levels” value is given as 53%. Consider “416502 (antisense eG*eT*eT*e[5mC]*eT*dT*dT*dG*dA*dA*dA*dA*dA*dT*dA*eA*eT*e[5mC]*e[5mC]*e[5mC]) [compound 416502]”, for which the “% Inhibition of human Factor 7 mRNA levels” value is recorded as 22%. Same read-out and setting: the value for “416498 (antisense eG*eG*e[5mC]*e[5mC]*eA*dG*dT*dG*dG*d[5mC]*d[5mC]*dA*dT*dG*d[5mC]*eA*eT*e[5mC]*e[5mC]*e[5mC]) [compound 416498]” was 5%; that for “416480 (antisense eA*eA*eG*eT*eG*dA*dG*dA*dG*d[5mC]*dT*dA*dA*dA*d[5mC]*eA*eA*e[5mC]*e[5mC]*eG) [compound 416480]” was 25%; that for “416518 (antisense eG*eG*eG*eT*eG*dA*d[5mC]*d[5mC]*dA*d[5mC]*dA*d[5mC]*dA*dT*dT*eT*e[5mC]*e[5mC]*eT*eG) [compound 416518]” was 55%. The same measure, in the same setting: the value for “416556 (antisense eA*eT*eA*eG*e[5mC]*dT*dT*dT*dG*dA*dT*d[5mC]*d[5mC]*dA*dA*eT*eG*e[5mC]*eT*e[5mC]) [compound 416556]” was 53%; that for “416459 (antisense eT*eG*eG*eT*e[5mC]*dA*dG*dT*dG*dA*dG*dG*dA*d[5mC]*d[5mC]*eA*e[5mC]*eG*eG*eG) [compound 416459]” was 23%. On to “416566 (antisense eG*eT*eT*eT*eG*dT*dA*dT*dG*dG*dA*dG*dA*dG*dA*e[5mC]*e[5mC]*eA*eA*eT) [compound 416566]”, for which the “% Inhibition of human Factor 7 mRNA levels” value is on record as 0%. The same measure, in the same setting: the same measure for “416522 (antisense eG*eG*e[5mC]*eT*eG*dA*dG*dA*dA*dT*dT*dG*d[5mC]*d[5mC]*d[5mC]*eA*eG*eG*eG*e[5mC]) [compound 416522]”: 25%.

Still in this data set, the particulars now being: HepB3 cells; gapmers (5-10-5, 3-14-3, 2-13-5 MOE) targeted to nucleobases 4868 to 4899 of SEQ ID NO: 1.
Consider “422300 (antisense eG*eA*dG*d[5mC]*d[5mC]*d[5mC]*dG*dA*dG*dT*dT*d[5mC]*dT*dG*d[5mC]*eA*eG*eG*eA*eG) [compound 422300]”, for which the “% Inhibition of human Factor 7 mRNA levels” value worked out at 65%.

As to “422216 (antisense eA*eG*eT*dT*d[5mC]*dT*dG*d[5mC]*dA*dG*dG*dA*dG*d[5mC]*dG*dG*d[5mC]*e[5mC]*eT*eA) [compound 422216]”, the “% Inhibition of human Factor 7 mRNA levels” value was found to be 68%.

The same data set, now with this note: HepB3 cells; gapmers targeted to nucleobases 11830 to 11869 of SEQ ID NO: 1 (Table 9).
As for “422102 (antisense e[5mC]*eT*eG*eA*eG*dG*dA*dG*dA*d[5mC]*dA*dA*dT*dG*dG*eT*e[5mC]*eA*eG*eG) [compound 422102]”, the “% Inhibition of human Factor 7 mRNA levels” value is on record as 62%. With “422093 (antisense eA*eA*eT*eG*eG*dT*d[5mC]*dA*dG*dG*dG*d[5mC]*dT*dG*dG*eT*eT*eT*eT*eG) [compound 422093]”, the “% Inhibition of human Factor 7 mRNA levels” value was 42%. The same measure, in the same setting: the value for “422164 (antisense eG*eA*eG*dA*d[5mC]*dA*dA*dT*dG*dG*dT*d[5mC]*dA*dG*dG*dG*d[5mC]*eT*eG*eG) [compound 422164]” was 64%.

The same data set, now with this note: HepB3 cells; gapmers targeted to nucleobases 13760 to 13789 of SEQ ID NO: 1 (Table 10).
Take “422255 (antisense eA*e[5mC]*d[5mC]*d[5mC]*dG*d[5mC]*d[5mC]*dG*dG*d[5mC]*dT*d[5mC]*dT*dG*d[5mC]*eT*e[5mC]*eA*eT*e[5mC]) [compound 422255]”: the “% Inhibition of human Factor 7 mRNA levels” value is on record as 30%.

Staying with this data set, now noted: HepB3 cells; gapmers targeted to nucleobases 14707 to 14732 of SEQ ID NO: 1 (Table 11).
“422202 (antisense eA*eG*e[5mC]*d[5mC]*dT*dG*dA*dG*dG*d[5mC]*d[5mC]*dA*dG*d[5mC]*dA*dG*dA*eT*e[5mC]*eA) [compound 422202]”: the “% Inhibition of human Factor 7 mRNA levels” value came out at 49%.
